Measurements: patent publication US20250213561A1, “SELECTIVE HYPOTHALAMUS PERMEABLE HDAC6 INHIBITORS FOR TREATMENT OF LEPTIN-RESISTANT OBESITY” (The Children’s Medical Center Corporation, priority 2022, published 2025)

What was measured:
Assay type in all cases: in vivo
DMH neurons = assay: c-Fos immunostaining in DMH of DIO mice; settings: fasting, acute 10 mg/kg i.p.
Method: Following the bilateral injection of AAV-sgHDAC6 into the arcuate nucleus of Agrp-ires-cre::LSL-Cas9-GFP (Agrp-Cre^+/−::Cas9^+/−) or control LSL-Cas9-GFP (Cas9^+/−) mice, immunostaining to detect the expression of mCherry and GFP was performed. AAV-sg-HDAC6 injected Agrp-Cre^+/−::Cas9^+/− (HDAC6^Agrp-Δ) and Cas9^+/−(HDAC6^WT) DIO mice (n=7 for each group) were fasted for 24 hours, and injected with ACY775 (10 mg/kg. i.p). Hourly total dark cycle food intake (g) (n=7 for each group) of these mice after ACY775 injection was measured. Body weight of AAV-sg-HDAC6 injected HDAC6^Agrp-Δ (n=11) and HDAC6^WT (n=6) mice were measured during 3 weeks of ACY775 (10 mg/kg/day, i.p.) treatment. Daily average food intake of HDAC6^Agrp-Δ (n=11) and HDAC6^WT (n=6) mice was measured during 3 weeks of ACY775 (10 mg/kg/day, i.p.) treatment. 24-hour food intake average of HDAC6^Agrp-Δ and HDAC6^WT mice during the 3 weeks of ACY775 treatment was assessed. Serum leptin level (ng/ml) of HDAC6^Agrp-Δ and HDAC6^WT mice after 2 weeks of ACY775 treatment (n=13 for HDAC6^WT and n=18 for HDAC6^Agrp-Δ) was measured. Lean mass (g); fat mass; and fat percentage (%) of HDAC6^Agrp-Δ and HDAC6^WT DIO mice after 3 weeks of ACY775 treatment was measured by DEXA scan. The HDAC6 inhibitor responsive neurons in the dorsomedial hypothalamus (DMH) were assessed. […]

[1] = test system: HDAC6 in ACY775-responsive DMH neurons; assay: TRAP2-HDAC6^DMH-Δ DIO mice; settings: TRAP2-HDAC6^DMH-Δ and TRAP2-HDAC6^WT DIO mice
Method: Coordinates used for aav-sg-HDAC6 injection into the DMH of c-Fos-iCreER::LSL-Cas9-GFP (TRAP2-Cas9) mouse., mCherry immunostaining in the aav-sg-HDAC6 injected TRAP2-cas9 obese mice, which were treated three weeks earlier with one dose of ACY775 (10 mg/kg, i.p.) (TRAP2-HDAC6^DMH-Δ) or vehicle (TRAP2-HDAC6^WT), followed by 4-Hydroxytamoxifen (4-OHT) injection, were assessed. TRAP2-HDAC6^WT and TRAP2-HDAC6^DMH-Δ mice were fasted 24-h and treated with ACY775 (10 mg/kg, i.p.). Hourly and total dark cycle food intake (g) (n=4 for each group) was determined for these mice after ACY775 injection. Daily body weight of TRAP2-HDAC6^DMH-Δ(n=10) or TRAP2-HDAC6^WT(n=11) DIO mice was measured during 2 weeks of ACY775 (10 mg/kg/day, i.p) treatment. Daily average food intake of TRAP2-HDAC6^DMH-Δ(n=10) or TRAP2-HDAC6^WT(n=11) DIO mice was measured during 2 weeks of ACY775 treatment.
To investigate whether activity of other neuronal populations are altered after HDAC6 inhibitor treatment, c-fos staining was performed in the whole brain of DIO mice, which were acutely treated with ACY775. […] Some of the DMH neurons express high levels of LepRb and involved in regulation of appetite […]. Whether HDAC6 in these ACY775-responsive DMH neurons is required or involved in any way in mediating the appetite suppressing and body weight lowering effects of ACY775 was then tested. […]

HDAC6 in AgRP neurons = assay: DIO mice with HDAC6 depleted in AgRP neurons (HDAC6^Agrp-Δ)
Method: Design, validation, and stereotaxic injection of AAV viral vector carrying the guide RNAs targeting the mouse HDAC6 genomic locus. Three designed sgRNAs were concatenated and constructed into an AAV vector carrying a cre-enabled mCherry fluorescent marker.
Following the bilateral injection of AAV-sgHDAC6 into the arcuate nucleus of Agrp-ires-cre::LSL-Cas9-GFP (Agrp-Cre^+/−::Cas9^+/−) or control LSL-Cas9-GFP (Cas9^+/−) mice, immunostaining to detect the expression of mCherry and GFP was performed. AAV-sg-HDAC6 injected Agrp-Cre^+/−::Cas9^+/− (HDAC6^Agrp-Δ) and Cas9^+/−(HDAC6^WT) DIO mice (n=7 for each group) were fasted for 24 hours, and injected with ACY775 (10 mg/kg. i.p). Hourly total dark cycle food intake (g) (n=7 for each group) of these mice after ACY775 injection was measured. Body weight of AAV-sg-HDAC6 injected HDAC6^Agrp-Δ (n=11) and HDAC6^WT (n=6) mice were measured during 3 weeks of ACY775 (10 mg/kg/day, i.p.) treatment. Daily average food intake of HDAC6^Agrp-Δ (n=11) and HDAC6^WT (n=6) mice was measured during 3 weeks of ACY775 (10 mg/kg/day, i.p.) treatment. 24-hour food intake average of HDAC6^Agrp-Δ and HDAC6^WT mice during the 3 weeks of ACY775 treatment was assessed. Serum leptin level (ng/ml) of HDAC6^Agrp-Δ and HDAC6^WT mice after 2 weeks of ACY775 treatment (n=13 for HDAC6^WT and n=18 for HDAC6^Agrp-Δ) was measured. Lean mass (g); fat mass; and fat percentage (%) of HDAC6^Agrp-Δ and HDAC6^WT DIO mice after 3 weeks of ACY775 treatment was measured by DEXA scan. The HDAC6 inhibitor responsive neurons in the dorsomedial hypothalamus (DMH) were assessed. Immunostaining and quantification of c-Fos expression was performed in the DMH of DIO mice following one-time ACY775 treatment (10 mg/kg, i.p.).

SMILES: O=C(NO)c1cnc(NC2(c3cccc(F)c3)CCCCC2)nc1 [ACY775, 2-[[1-(3-fluorophenyl)cyclohexyl]amino]-N-hydroxy-5-pyrimidinecarboxamide]
- c-fos positive cell number in the DMH (DMH neurons): major increase in c-fos positive cell number
- body weight and food intake, two weeks [1]: lost weight and food intake was reduced equally in both groups
- food intake after a dose in 24 h fasted mice [1]: consumed similar but small amount of food
- suppression of food intake after a single dose (HDAC6 in AgRP neurons; HDAC6^Agrp-Δ DIO mice, 10 mg/kg i.p.): almost complete resistance to ACY755-induced suppression of food intake
- anti-obesity effects on chronic treatment (HDAC6 in AgRP neurons; HDAC6^Agrp-Δ versus HDAC6^WT DIO mice): Significantly attenuated effects
